Reference: paper PMC3885398, “Evaluation of the Antitumor Effects of BPR1J-340, a Potent and Selective FLT3 Inhibitor, Alone or in Combination with an HDAC Inhibitor, Vorinostat, in AML Cancer” (PLoS ONE, 2014)

Legend:
MV4;11 cells = assay: Apoptosis assay, Annexin V-FITC/PI flow cytometry; assay type: cell-based, human; conditions: MV4;11 (FLT3-ITD-expressing cells), 300 nM, 48 hours
Method: (§1) The number of apoptotic cells was determined by fluorescence-activated cell sorting (FACS) analyses using Annexin V-FITC staining. In brief, cells were centrifuged after drug treatment and resuspended in 1× binding buffer containing 2.5 mM of calcium (Ca2+). Cells were incubated with Annexin V-FITC (Biolegend, San Diego, CA) and propidium iodide (PI) (Sigma–Aldrich, St. Louis, MO) in the dark at room temperature for 20 minutes. Next, samples were reconstituted with 1× binding buffer and subjected to flow cytometry FACS Calibus (BD Bioscience, Franklin Lakes, NJ) to analyze the Annexin V-positive population using CellQuest Pro (BD Bioscience) and FlowJo (Treestar, Inc., San Carlos, CA).
(§2) Some histone deacetylase inhibitors (HDACi) will enhance the cytotoxic activity of FLT3 inhibitor on FLT3-ITD^+ cell via degradation of FLT3-ITD and STAT5 [24], [26], [36], [37]. […]
(§3) Figure 4 The effect of BPR1J-340 and SAHA versus drug combination on AML FLT3-ITD+ cells. […] (A) Viable cells were counted after staining with trypan blue dye at indicated time point (B) At 48-hours after treatment, cells were stained with FITC-labeled annexin V and propidium iodide and percentages of apoptotic cells were analyzed by flow cytometry. […]

MOLM-13 cells = assay: Apoptosis assay, Annexin V-FITC/PI flow cytometry; assay type: cell-based, human; conditions: MOLM-13 (FLT3-ITD-expressing cells), 300 nM, 48 hours
Method: as §1, §2, §3

MOLM-13 tumor xenograft = tested on: MOLM-13 tumor xenograft; design: method as in PMID 22187040; conditions: 25 mg/kg, same MOLM-13 model; cited from earlier work

O=C(CCCCCCC(=O)Nc1ccccc1)NO [SAHA, vorinostat]
rate of apoptotic cells versus control (MV4;11 cells): did not increase | rate of apoptotic cells versus control (MOLM-13 cells): did not increase

CN1CCN(c2ccc(C(=O)Nc3cc(-c4cccc(NS(=O)(=O)c5ccccc5)c4)n[nH]3)cc2)CC1 [BPR1J-097, N1-(3-3-[(phenylsulfonyl)amino]phenyl-1H-5-pyrazolyl)-4-(4-methylpiperazino)benzamide]
CR, animals (MOLM-13 tumor xenograft): 1/8
